The values below are quoted from earlier work in US9878046B2, “Adverse side-effects associated with administration of an anti-hyaluronan agent and methods for ameliorating or preventing the side-effects” (Halozyme, Inc., priority 2010, dated 2018).

The subject of one data set is B16 melanoma model. The settings on record: oral administration at 600 mg/kg/d; cited from earlier work.
For data set [1] the following is noted: glucocorticoid, route IV or PO as listed; cited from earlier work.

As to `Cc1cc(=O)oc2cc(O)ccc12` [4-MU, 4-Methylumbelliferone], the reduction of metastases in the data set on B16 melanoma model is 64%.

On to `C[C@]12CCC(=O)C=C1CC[C@@H]1[C@@H]2[C@@H](O)C[C@@]2(C)[C@H]1CC[C@]2(O)C(=O)CO` [Hydrocortisone], for which the “Equivalent Potency” value in data set [1] is listed as 20 mg.

On to `C[C@H]1C[C@@H]2[C@H]([C@@H](O)C[C@@]3(C)[C@H]2CC[C@]3(O)C(=O)COC(=O)CCC(=O)O)[C@@]2(C)C=CC(=O)C=C12` [Methylprednisolone sodium succinate], for which, in data set [1], the “Equivalent Potency” value was 4 mg.

On to `C[C@]12C=CC(=O)C=C1CC[C@@H]1[C@@H]2[C@@H](O)C[C@@]2(C)[C@H]1CC[C@]2(O)C(=O)CO` [Prednisolone], for which the “Equivalent Potency” value in data set [1] is 5 mg.
